Measurements published in patent US12103926B2, “Compounds for treating huntington's disease” (PTC THERAPEUTICS, INC., priority 2018, dated 2024).

These compounds were tested on Endogenous Huntingtin Protein (assay: Endogenous Huntingtin Protein Assay (ELISA-based MSD electrochemiluminescence assay)). Settings: MW1 (expanded polyglutamine) or MAB2166 capture antibody; lysates.
Assay type: cell-based
Protocol: Compounds of Formula (I) were tested using the Meso Scale Discovery (MSD) Assay provided in International Application No. PCT/US2016/066042, filed on Dec. 11, 2016 and claiming priority to United States Provisional Application U.S. 62/265,652 filed on Dec. 10, 2015, the entire contents of which are incorporated herein by reference.
The Endogenous Huntingtin Protein assay used in Example 1 was developed using the ELISA-based MSD electrochemiluminescence assay platform.
Endogenous Huntingtin Protein Assay
Meso Scale Discovery (MSD) 96-well or 384-well plates were coated overnight at 4° C. with MW1 (expanded polyglutamine) or MAB2166 monoclonal antibody (for capture) at a concentration of 1 μg/mL in PBS (30 μL per well). Plates were then washed three times with 300 μL wash buffer (0.05% Tween-20 in PBS) and blocked (100 μL blocking buffer; 5% BSA in PBS) for 4-5 hours at room temperature with rotational shaking and then washed three times with wash buffer.
Samples (25 μL) were transferred to the antibody-coated MSD plate and incubated overnight at 4° C. After removal of the lysates, the plate was washed three times with wash buffer, and 25 μL of #5656S (Cell signaling; rabbit monoclonal) secondary antibody (diluted to 0.25 μg/mL in 0.05% Tween-20 in blocking buffer) was added to each well and incubated with shaking for 1 Hour at room temperature. Following incubation with the secondary antibody, the wells were rinsed with wash buffer after which 25 μL of goat anti-rabbit SULFO TAG secondary detection antibody (required aspect of the MSD system) (diluted to 0.25 μg/mL in 0.05% Tween-20 in blocking buffer) was added to each well and incubated with shaking for 1 hour at room temperature. After rinsing three times with wash buffer, 150 μL of read buffer T with surfactant (MSD) were added to each empty well, and the plate was imaged on a SI 6000 imager (MSD) according to manufacturers' instructions provided for 96- or 384-well plates.

Row | Structure (SMILES) | IC50
1 | CC1(C)CC(Nc2cnc(-c3ccc(-c4cn5ccnc5cn4)cc3O)cn2)CC(C)(C)N1 [Cpd 53, 5-(imidazo[1,2-a]pyrazin-6-yl)-2-{5-[(2,2,6,6-tetramethylpiperidin-4-yl)amino]pyrazin-2-yl}phenol] | 0.1 to 0.5 µM
2 | CC1(C)CC(Nc2cnc(-c3ccc(-c4cc[nH]n4)cc3O)cn2)CC(C)(C)N1 [Cpd 58, 5-(1H-pyrazol-3-yl)-2-{5-[(2,2,6,6-tetramethylpiperidin-4-yl)amino]pyrazin-2-yl}phenol] | 0.1 to 0.5 µM
3 | CN(c1cnc(-c2ccc(-c3cn[nH]c3C(F)(F)F)cc2O)cn1)C1CC(C)(C)NC(C)(C)C1 [Cpd 9, 2-{5-[methyl(2,2,6,6-tetramethylpiperidin-4-yl)amino]pyrazin-2-yl}-5-[5-(trifluoromethyl)-1H-pyrazol-4-yl]phenol] | 1 to 3 µM
4 | CN(c1cnc(-c2ccc(-c3cnn(C)c3)cc2O)cn1)C1CC(C)(C)NC(C)(C)C1 [Cpd 27, 5-(1-methyl-1H-pyrazol-4-yl)-2-{5-[methyl(2,2,6,6-tetramethylpiperidin-4-yl)amino]pyrazin-2-yl} phenol] | 0.1 to 0.5 µM
5 | CC1(C)CC(Nc2cnc(-c3ccc(-c4cn[nH]c4)cc3O)cn2)CC(C)(C)N1 [Cpd 46, 5-(1H-pyrazol-4-yl)-2-{5-[(2,2,6,6-tetramethylpiperidin-4-yl)amino]pyrazin-2-yl}phenol] | < 0.1 µM
6 | CN(c1cnc(-c2cc(Cl)c(-c3cn[nH]c3)cc2F)cn1)C1CC(C)(C)NC(C)(C)C1 [Cpd 23, 5-[5-chloro-2-fluoro-4-(1H-pyrazol-4-yl)phenyl]-N-methyl-N-(2,2,6,6-tetramethylpiperidin-4-yl)pyrazin-2-amine] | 0.1 to 0.5 µM
7 | CC1(C)CC(Nc2cnc(-c3ccc(-n4cc(F)cn4)cc3O)cn2)CC(C)(C)N1 [Cpd 59, 5-(4-fluoro-1H-pyrazol-1-yl)-2-{5-[(2,2,6,6-tetramethylpiperidin-4-yl)amino]pyrazin-2-yl}phenol] | 1 to 3 µM
8 | CN(c1cnc(-c2ccc(-c3ccnc(O)c3)cc2O)cn1)C1CC(C)(C)NC(C)(C)C1 [Cpd 1, 4-(3-hydroxy-4-{5-[methyl(2,2,6,6-tetramethylpiperidin-4-yl)amino]pyrazin-2-yl}phenyl)pyridin-2-ol] | < 0.1 µM
9 | CN(c1cnc(-c2cc(F)c(-c3cn[nH]c3)cc2F)cn1)C1CC(C)(C)NC(C)(C)C1 [Cpd 15, 5-[2,5-difluoro-4-(1H-pyrazol-4-yl)phenyl]-N-methyl-N-(2,2,6,6-tetramethylpiperidin-4-yl)pyrazin-2-amine] | < 0.1 µM
10 | CC(C)(C)NC1CCN(c2cnc(-c3ccc(-c4cn[nH]c4)cc3O)cn2)C1 (stereo not shown) [Cpd 52, 2-{5-[3-(tert-butylamino)pyrrolidin-1-yl]pyrazin-2-yl}-5-(1H-pyrazol-4-yl)phenol] | < 0.1 µM
11 | [2H]C([2H])([2H])n1cc(-c2ccc(-c3cnc(N4CCC(NC(C)(C)C)C4)cn3)c(O)c2)cn1 (stereo not shown) [Cpd 60, 2-{5-[3-(tert-butylamino)pyrrolidin-1-yl]pyrazin-2-yl}-5-[1-(^2H3)methyl-1H-pyrazol-4-yl]phenol] | < 0.1 µM
12 | CC1(C)CC(Nc2cnc(-c3ccc(-c4cccnc4)cc3O)cn2)CC(C)(C)N1 [Cpd 45, 5-(pyridin-3-yl)-2-{5-[(2,2,6,6-tetramethylpiperidin-4-yl)amino]pyrazin-2-yl}phenol] | 0.5 to 1 µM
13 | Cc1cc(-c2cnc(N(C)C3CC(C)(C)NC(C)(C)C3)cn2)c(F)cc1-c1cn[nH]c1 [Cpd 11, 5-[2-fluoro-5-methyl-4-(1H-pyrazol-4-yl)phenyl]-N-methyl-N-(2,2,6,6-tetramethylpiperidin-4-yl)pyrazin-2-amine] | 0.1 to 0.5 µM
14 | CN(c1cnc(-c2ccc(-n3cccn3)cc2O)cn1)C1CC(C)(C)NC(C)(C)C1 [Cpd 19, 2-{5-[methyl(2,2,6,6-tetramethylpiperidin-4-yl)amino]pyrazin-2-yl}-5-(1H-pyrazol-1-yl)phenol] | 1 to 3 µM
15 | CN(c1cnc(-c2ccc(-c3cn[nH]c3)c(F)c2F)cn1)C1CC(C)(C)NC(C)(C)C1 [Cpd 13, 5-[2,3-difluoro-4-(1H-pyrazol-4-yl)phenyl]-N-methyl-N-(2,2,6,6-tetramethylpiperidin-4-yl)pyrazin-2-amine] | < 0.1 µM
16 | CN(c1cnc(-c2ccc(-n3ccc(N)n3)cc2O)cn1)C1CC(C)(C)NC(C)(C)C1 [Cpd 14, 5-(3-amino-1H-pyrazol-1-yl)-2-{5-[methyl(2,2,6,6-tetramethylpiperidin-4-yl)amino]pyrazin-2-yl}phenol] | 1 to 3 µM
17 | CC1(C)CC(Nc2cnc(-c3ccc(-n4ccnc4)cc3O)cn2)CC(C)(C)N1 [Cpd 50, 5-(1H-imidazol-1-yl)-2-{5-[(2,2,6,6-tetramethylpiperidin-4-yl)amino]pyrazin-2-yl}phenol] | 0.1 to 0.5 µM
18 | CN(c1cnc(-c2ccc(-c3ccn(C)c(=O)c3)cc2O)cn1)C1CC(C)(C)NC(C)(C)C1 [Cpd 18, 4-(3-hydroxy-4-{5-[methyl(2,2,6,6-tetramethylpiperidin-4-yl)amino]pyrazin-2-yl}phenyl)-1-methylpyridin-2(1H)-one] | 1 to 3 µM
19 | CC1(C)CC(Nc2cnc(-c3ccc(-c4cn[nH]c4F)cc3O)cn2)CC(C)(C)N1 [Cpd 57, 5-(5-fluoro-1H-pyrazol-4-yl)-2-{5-[(2,2,6,6-tetramethylpiperidin-4-yl)amino]pyrazin-2-yl}phenol] | < 0.1 µM
